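Each compound was tested at five concentrations against cells in 96-well plates for 48 hours. Abbreviation: GI50, concentration required for 50% inhibition of growth.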 Active and inactive are the calls of the source. No stated cut-off is given here; in the data, active = GI50 up to about 1.1 µM and inactive = higher.
How the values were obtained:
Test in all cases: inhibition of tumour cell growth, NCI panel, 48 h
[1] = tested on: UACC-62
[2] = tested on: HOP-92
[3] = tested on: SN12C
[4] = tested on: ACHN
[5] = tested on: EKVX
[6] = tested on: HCC 2998
[7] = tested on: COLO 205
[8] = tested on: SW-620
[9] = tested on: SF-268
[10] = tested on: OVCAR-8
[11] = tested on: NCI-H460
[12] = tested on: RPMI-8226
[13] = tested on: A549
[14] = tested on: RXF 393
[15] = tested on: OVCAR-5
[16] = tested on: SK-MEL-28
[17] = tested on: HL-60
[18] = tested on: HCT-15
[19] = tested on: HCT-116
[20] = tested on: SK-MEL-2
[21] = tested on: UACC-257
[22] = tested on: HOP-62
[23] = tested on: SK-MEL-5
[24] = tested on: SF-539
[25] = tested on: M19-MEL
[26] = tested on: NCI-H226
[27] = tested on: LXFL 529
[28] = tested on: NCI-H23
[29] = tested on: UO-31
[30] = tested on: SNB-78
[31] = tested on: LOX IMVI
[32] = tested on: XF498
[33] = tested on: DMS-114
[34] = tested on: OVCAR-4
[35] = tested on: HT-29
[36] = tested on: SNB-19
[37] = tested on: DMS-273
[38] = tested on: KM-20L2
[39] = tested on: MOLT-4
[40] = tested on: M14
[41] = tested on: TK-10
[42] = tested on: IGROV-1
[43] = tested on: SR
[44] = tested on: OVCAR-3
[45] = tested on: SNB-75
[46] = tested on: K562
[47] = tested on: A498
[48] = tested on: SF-295
[49] = tested on: 786-0
[50] = tested on: CCRF-CEM
[51] = tested on: U-251
[52] = tested on: KM12
[53] = tested on: NCI-H522
[54] = tested on: CAKI-1
[55] = tested on: SK-OV-3
[56] = tested on: Malme-3M

## CCCCNC(=O)N/C=C1\C(=O)Oc2ccccc2C1=O
[1]
  GI50: 33.4 µM (inactive)
[2]
  GI50: 24.9 µM (inactive)
[3]
  GI50: 29.5 µM (inactive)
[4]
  GI50: 24.5 µM (inactive)
[5]
  GI50: > 100 µM (inactive)
[6]
  GI50: > 100 µM (inactive)
[7]
  GI50: > 100 µM (inactive)
[8]
  GI50: 58.7 µM (inactive)
[9]
  GI50: 34.4 µM (inactive)
[10]
  GI50: 74.1 µM (inactive)
[11]
  GI50: > 100 µM (inactive)
[12]
  GI50: 55.7 µM (inactive)
[13]
  GI50: 80.9 µM (inactive)
[14]
  GI50: 15 µM (inactive)
[15]
  GI50: 68.5 µM (inactive)
[16]
  GI50: 30.1 µM (inactive)
[17]
  GI50: 22.1 µM (inactive)
[18]
  GI50: 28.8 µM
[19]
  GI50: 43.9 µM (inactive)
[20]
  GI50: 20.1 µM (inactive)
[21]
  GI50: 55.7 µM (inactive)
[22]
  GI50: 47.5 µM (inactive)
[23]
  GI50: > 100 µM (inactive)
[24]
  GI50: 39.4 µM (inactive)
[25]
  GI50: 54.5 µM (inactive)
[26]
  GI50: 32.7 µM (inactive)
[27]
  GI50: 47.8 µM (inactive)
[28]
  GI50: 54.6 µM (inactive)
[29]
  GI50: 11.8 µM (inactive)
[30]
  GI50: 19.9 µM (inactive)
[31]
  GI50: 70.1 µM (inactive)
[32]
  GI50: 14.1 µM (inactive)
[33]
  GI50: 28.3 µM (inactive)
[34]
  GI50: 57.3 µM (inactive)
[35]
  GI50: > 100 µM (inactive)
[36]
  GI50: 26.5 µM (inactive)
[37]
  GI50: 76.6 µM (inactive)
[38]
  GI50: > 100 µM (inactive)
[39]
  GI50: 35.3 µM (inactive)
[40]
  GI50: 41.7 µM (inactive)
[41]
  GI50: 79.4 µM (inactive)
[42]
  GI50: 37.1 µM (inactive)
[43]
  GI50: 57.5 µM (inactive)

## CC[S+](C)c1ccc(-c2c3nc(c(-c4ccc([S+](C)CC)cc4)c4ccc([nH]4)c(-c4ccc([S+](C)CC)cc4)c4nc(c(-c5ccc([S+](C)CC)cc5)c5ccc2[nH]5)C=C4)C=C3)cc1.[O-][Cl+3]([O-])([O-])[O-].[O-][Cl+3]([O-])([O-])[O-].[O-][Cl+3]([O-])([O-])[O-].[O-][Cl+3]([O-])([O-])[O-] (stereo not drawn)
[1]
  GI50: 12.9 µM (inactive)
[2]
  GI50: 0.649 µM (active)
[3]
  GI50: 16.8 µM (inactive)
[44]
  GI50: 56.9 µM (inactive)
[45]
  GI50: 24.3 µM (inactive)
[4]
  GI50: 29.6 µM (inactive)
[5]
  GI50: 11 µM (inactive)
[7]
  GI50: 35.9 µM (inactive)
[8]
  GI50: 28.3 µM (inactive)
[9]
  GI50: 21.8 µM (inactive)
[10]
  GI50: 22.9 µM (inactive)
[11]
  GI50: 22 µM (inactive)
[12]
  GI50: 7.78 µM (inactive)
[46]
  GI50: 13.9 µM (inactive)
[13]
  GI50: 18.5 µM (inactive)
[14]
  GI50: 13.6 µM (inactive)
[15]
  GI50: 21.7 µM (inactive)
[16]
  GI50: 18.9 µM (inactive)
[17]
  GI50: 6.41 µM (inactive)
[18]
  GI50: 19.3 µM
[19]
  GI50: 27.9 µM (inactive)
[20]
  GI50: 18.2 µM (inactive)
[47]
  GI50: 36.6 µM (inactive)
[21]
  GI50: 31 µM (inactive)
[22]
  GI50: 30.1 µM (inactive)
[23]
  GI50: 24.7 µM (inactive)
[24]
  GI50: 27.4 µM (inactive)
[25]
  GI50: 40.9 µM (inactive)
[48]
  GI50: 28.7 µM (inactive)
[49]
  GI50: 27.7 µM (inactive)
[50]
  GI50: 18.9 µM (inactive)
[27]
  GI50: 10.1 µM (inactive)
[28]
  GI50: 38.6 µM (inactive)
[51]
  GI50: 16.6 µM (inactive)
[30]
  GI50: 56.2 µM (inactive)
[52]
  GI50: 20.3 µM (inactive)
[53]
  GI50: 29.6 µM (inactive)
[31]
  GI50: 11.3 µM (inactive)
[32]
  GI50: 0.881 µM (active)
[34]
  GI50: > 100 µM (inactive)
[35]
  GI50: 29.2 µM (inactive)
[36]
  GI50: 93.8 µM (inactive)
[37]
  GI50: 34.4 µM (inactive)
[54]
  GI50: 39.1 µM (inactive)
[38]
  GI50: 14.1 µM (inactive)
[55]
  GI50: 30.4 µM (inactive)
[39]
  GI50: 20 µM (inactive)
[40]
  GI50: 24.9 µM (inactive)
[56]
  GI50: 4.4 µM (inactive)
[43]
  GI50: 18.5 µM (inactive)
